The values below come from ChEMBL document CHEMBL1201862, “PubChem BioAssay data set” (2004).

Assay [1] has as its target Eukaryotic translation initiation factor 4E (Mus musculus, UniProt P63073). The assay is described as follows: eIF4E–eIF4G protein interaction inhibitors, dose response, biochemical, TR-FRET (AID 855).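 Also: potency for disrupting eIF4E binding to eIF4GI seen as loss of FRET.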 The class given is functional.
The nature of assay [2]: P. falciparum 3D7-ScDHODH growth inhibitors, dose response, SYBR Green, dry powder samples (AID 1159570).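 Also: parasite growth measured after 72 hours of compound exposure.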 The class given is functional, cell-based.
Assay [3] can be described thus: HepG2 cell cytotoxicity, dose response, cytotoxicity control, plate reader, dry powder samples (AID 1159569).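 Also: inhibitor potency with signal falling toward the positive control level.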 The class given is functional, cell-based.
Assay [4] is described as follows: P. falciparum Dd2 growth inhibitors, dose response, SYBR Green, cherry-picked samples (AID 1159567). Format: functional, cell-based.
The nature of assay [5]: P. falciparum Dd2 growth inhibitors, dose response, SYBR Green, dry powder samples (AID 1159566).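 Also: potency for growth inhibition with lower SYBR green DNA signal.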 The class given is functional, cell-based.
The nature of assay [6]: P. falciparum ATP4 D1247Y mutant growth inhibitors, dose response, NITD609-resistant line, SYBR Green, dry powder (AID 1159571).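 Also: parasites synchronized at ring stage by sorbitol before testing.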 Format: functional, cell-based.
Assay [7] is described as follows: HepG2 cell cytotoxicity, dose response, cytotoxicity control, cherry-picked samples (AID 1159577). Format: functional, cell-based.
Assay [8] deals with T1, 1-phosphatidylinositol 4,5-bisphosphate phosphodiesterase gamma-1 (Homo sapiens, UniProt P19174).
T1 sequence (P19174 whole entry): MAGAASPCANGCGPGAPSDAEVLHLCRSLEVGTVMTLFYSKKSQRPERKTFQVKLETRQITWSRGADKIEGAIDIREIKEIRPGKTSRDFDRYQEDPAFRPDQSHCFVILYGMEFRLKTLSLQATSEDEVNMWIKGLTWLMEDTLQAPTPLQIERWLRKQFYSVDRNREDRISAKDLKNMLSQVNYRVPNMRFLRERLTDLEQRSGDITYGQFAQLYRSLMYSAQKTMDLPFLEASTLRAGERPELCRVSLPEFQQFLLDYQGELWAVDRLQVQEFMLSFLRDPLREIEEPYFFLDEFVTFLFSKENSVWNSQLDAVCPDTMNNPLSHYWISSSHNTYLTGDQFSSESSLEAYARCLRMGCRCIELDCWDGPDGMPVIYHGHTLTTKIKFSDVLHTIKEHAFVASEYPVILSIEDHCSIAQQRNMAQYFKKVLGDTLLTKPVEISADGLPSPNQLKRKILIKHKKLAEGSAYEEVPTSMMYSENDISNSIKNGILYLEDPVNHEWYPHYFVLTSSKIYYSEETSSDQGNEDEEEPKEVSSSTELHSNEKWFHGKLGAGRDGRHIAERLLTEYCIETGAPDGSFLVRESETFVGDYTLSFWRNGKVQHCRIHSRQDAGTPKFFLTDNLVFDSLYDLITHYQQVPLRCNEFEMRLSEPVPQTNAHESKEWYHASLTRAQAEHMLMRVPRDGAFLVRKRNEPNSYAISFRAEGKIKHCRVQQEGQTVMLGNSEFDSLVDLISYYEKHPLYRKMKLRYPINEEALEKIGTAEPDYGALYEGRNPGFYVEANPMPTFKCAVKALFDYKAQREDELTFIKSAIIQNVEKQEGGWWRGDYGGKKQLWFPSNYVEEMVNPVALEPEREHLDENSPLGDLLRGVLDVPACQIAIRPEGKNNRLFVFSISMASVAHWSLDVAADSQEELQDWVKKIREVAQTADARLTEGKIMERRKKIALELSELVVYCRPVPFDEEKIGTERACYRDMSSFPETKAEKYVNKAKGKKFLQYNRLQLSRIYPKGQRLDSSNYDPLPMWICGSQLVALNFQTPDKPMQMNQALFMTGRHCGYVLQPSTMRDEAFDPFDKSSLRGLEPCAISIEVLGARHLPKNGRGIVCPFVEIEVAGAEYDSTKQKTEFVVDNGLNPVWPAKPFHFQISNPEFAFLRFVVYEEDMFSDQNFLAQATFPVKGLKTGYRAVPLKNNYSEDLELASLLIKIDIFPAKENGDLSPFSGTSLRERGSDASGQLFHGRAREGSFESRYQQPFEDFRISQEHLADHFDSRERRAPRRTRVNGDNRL
The assay is described as follows: Counterscreen for inhibitors of phospholipase C isozymes (PLC-B3): Fluorescence-based biochemical high throughput dose response assay to identify inhibitors of phospholipase C isozymes (PLC-gamma1).

For assay [9], the target named is T2, 1-phosphatidylinositol 4,5-bisphosphate phosphodiesterase beta-3 (Homo sapiens, UniProt Q01970).
T2 sequence (Q01970 whole entry): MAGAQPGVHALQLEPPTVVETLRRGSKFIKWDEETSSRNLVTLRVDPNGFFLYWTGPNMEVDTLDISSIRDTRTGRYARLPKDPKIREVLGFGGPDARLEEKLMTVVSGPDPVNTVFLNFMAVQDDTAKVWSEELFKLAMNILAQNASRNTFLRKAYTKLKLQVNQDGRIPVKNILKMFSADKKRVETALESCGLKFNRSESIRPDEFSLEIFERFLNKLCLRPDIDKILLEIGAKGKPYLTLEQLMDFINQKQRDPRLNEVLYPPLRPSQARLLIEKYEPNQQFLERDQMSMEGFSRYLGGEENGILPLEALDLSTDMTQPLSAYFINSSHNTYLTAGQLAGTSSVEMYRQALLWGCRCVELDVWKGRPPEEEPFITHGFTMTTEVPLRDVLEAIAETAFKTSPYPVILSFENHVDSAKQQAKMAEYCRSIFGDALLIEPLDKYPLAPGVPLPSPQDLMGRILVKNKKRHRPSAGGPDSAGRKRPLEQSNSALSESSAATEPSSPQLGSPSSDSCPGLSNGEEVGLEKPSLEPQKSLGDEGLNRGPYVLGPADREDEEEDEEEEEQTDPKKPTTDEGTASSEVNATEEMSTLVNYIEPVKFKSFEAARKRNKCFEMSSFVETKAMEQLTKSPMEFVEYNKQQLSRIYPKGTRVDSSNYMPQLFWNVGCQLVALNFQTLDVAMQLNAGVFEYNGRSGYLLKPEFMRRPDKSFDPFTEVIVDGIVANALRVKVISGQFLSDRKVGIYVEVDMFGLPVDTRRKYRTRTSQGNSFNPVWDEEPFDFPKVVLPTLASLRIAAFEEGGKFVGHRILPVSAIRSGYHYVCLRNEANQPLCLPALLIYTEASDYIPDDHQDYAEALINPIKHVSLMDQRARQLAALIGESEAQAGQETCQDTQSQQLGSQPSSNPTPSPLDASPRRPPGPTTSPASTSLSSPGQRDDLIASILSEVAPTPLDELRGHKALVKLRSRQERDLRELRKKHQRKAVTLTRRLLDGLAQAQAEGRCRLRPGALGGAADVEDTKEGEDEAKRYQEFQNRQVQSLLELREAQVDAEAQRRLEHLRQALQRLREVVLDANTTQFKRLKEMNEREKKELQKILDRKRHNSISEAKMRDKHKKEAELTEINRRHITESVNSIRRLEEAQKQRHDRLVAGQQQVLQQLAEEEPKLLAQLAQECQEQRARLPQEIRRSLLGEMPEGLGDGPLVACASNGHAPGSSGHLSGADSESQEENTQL
The assay is described as follows: Fluorescence-based biochemical high throughput dose response assay to identify inhibitors of phospholipase C isozymes (PLC-B3).

The nature of assay [10]: A549 cell cytotoxicity, dose response, cytotoxicity control, plate reader, cherry-pick, antagonist series (AID 743412). Format: functional, cell-based.
The nature of assay [11]: HepG2 cell cytotoxicity, dose response, cytotoxicity control, plate reader, cherry-pick, antagonist series (AID 743416). Format: functional, cell-based.
Assay [12] is described as follows: LGR2 antagonists, dose response, cell-based, HEK293, CRE-luciferase reporter, cherry pick, set 2 (AID 743343).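 Also: transfected cells were stimulated with diluted bursicon conditioned medium after compound addition.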 Format: functional.
Assay [13] is described as follows: MC4R antagonists, dose response, counter-screen for LGR2 antagonist project, cell-based, plate reader, cherry pick (AID 743444).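 Also: transfected HEK 293 cells stimulated with alpha-MSH peptide; potency of inhibitors of the alpha-MSH evoked signal.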 The class given is functional.
A short description of assay [14]: HEK293 cell cytotoxicity, dose response, cytotoxicity control, plate reader, cherry-picked samples (AID 743446). Format: functional, cell-based.
Assay [15] in a line: P. falciparum Dd2 growth inhibitors, dose response, SYBR Green, dry powder samples, set 9 (AID 1159568). Format: functional, cell-based.
The subject of a further assay is H9c2. As to the kind of experiment: cells. The class given is functional, cell-based. The note with it: Rattus norvegicus, H9c2, Myocardium.
The next assay has as its target Large T antigen (Simian virus 40, UniProt P03070). Format: functional, Betapolyomavirus macacae.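 Also: Confirmatory-stage PubChem screen for compounds that inhibit SV40 T antigen.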

Active and inactive are the calls of the source.

Chain of Eukaryotic translation initiation factor 4E (P63073 whole entry): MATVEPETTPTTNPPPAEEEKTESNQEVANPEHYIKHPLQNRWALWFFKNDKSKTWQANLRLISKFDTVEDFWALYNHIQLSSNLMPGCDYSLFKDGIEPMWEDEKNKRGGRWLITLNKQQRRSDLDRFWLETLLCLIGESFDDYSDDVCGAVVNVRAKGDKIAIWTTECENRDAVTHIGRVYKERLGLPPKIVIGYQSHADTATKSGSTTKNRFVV
Chain of Large T antigen (P03070 whole entry): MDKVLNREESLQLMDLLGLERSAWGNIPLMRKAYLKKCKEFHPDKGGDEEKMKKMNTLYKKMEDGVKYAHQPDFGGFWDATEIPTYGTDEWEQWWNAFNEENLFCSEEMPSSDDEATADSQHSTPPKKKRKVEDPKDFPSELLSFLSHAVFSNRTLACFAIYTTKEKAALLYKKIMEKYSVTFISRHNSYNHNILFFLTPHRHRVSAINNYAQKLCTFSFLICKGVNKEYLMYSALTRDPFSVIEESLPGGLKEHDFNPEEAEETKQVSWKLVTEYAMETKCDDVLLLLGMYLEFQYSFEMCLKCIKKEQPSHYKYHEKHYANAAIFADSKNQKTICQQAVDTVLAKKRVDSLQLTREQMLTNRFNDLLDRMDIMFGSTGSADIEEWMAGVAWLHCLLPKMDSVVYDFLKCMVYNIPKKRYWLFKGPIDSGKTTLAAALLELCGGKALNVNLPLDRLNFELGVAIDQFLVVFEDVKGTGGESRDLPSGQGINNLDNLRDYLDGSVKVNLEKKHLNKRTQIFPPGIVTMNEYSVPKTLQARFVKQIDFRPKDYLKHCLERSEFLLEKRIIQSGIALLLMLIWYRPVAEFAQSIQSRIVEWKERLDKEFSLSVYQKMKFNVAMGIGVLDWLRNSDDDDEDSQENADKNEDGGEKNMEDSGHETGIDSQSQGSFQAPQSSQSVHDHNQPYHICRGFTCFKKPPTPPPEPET

Regarding `CCNc1nc(NC(C)C)nc(Oc2ccc(OCCOc3ccccc3)nn2)n1`, in assay [1], the IC50 is > 64 µM (inactive).

Regarding `COc1ccccc1-c1ccc2c(c1)[C@@H]1[C@@H](CCN1C(=O)C1CCCCC1)[C@@H](CO)N2`, the AC50 in assay [2] is 0.488 µM (active); in assay [3] it was 11.1 µM (active); in [4], 1.74 µM (active); in assay [5], 0.283 µM (active); in [6], 0.498 µM (active).

As for `CCCC#Cc1ccc2c(c1)O[C@@H](CN(C)Cc1ccncc1)[C@H](C)CN([C@@H](C)CO)S2(=O)=O`, the AC50 in assay [4] was 3.85 µM (active); in [7] it was > 39 µM (inactive).

Take `C/N=C1/SC(CC(=O)NCCc2ccc(OC)c(OC)c2)C(=O)N1C` (configuration not stated): the IC50 in assay [8] and in assay [9] was > 122 µM (inactive) throughout.

With `COc1ccc(-c2coc3c(C(=O)Nc4cc(OC)c(OC)c(OC)c4)cccc23)c(C)c1`, the AC50 in assay [10] was 9.94 µM (active); in [11] it was 18.3 µM (active); in [12], 1.2 µM (active); in assay [13] it was 0.905 µM (active); in assay [14] it was 15.3 µM (active).

`OC[C@@H]1[C@H](c2ccc(-c3ccc(F)cc3)cc2)[C@@H](CNC2CCCC2)N1CCC(F)(F)F`: the AC50 in [2] is 0.259 µM (active); in assay [3], 21.1 µM (active); in [15], 0.491 µM (active); in assay [4], 0.401 µM (active); in assay [5], 0.113 µM (active); in assay [7], > 39 µM (inactive). The AC50 in [6] was 0.241 µM (active).

Consider `CCCc1cn(CC[C@@H]2CC[C@@H](NS(=O)(=O)c3ccc(-c4ccccc4)cc3)[C@@H](CO)O2)nn1`, for which the AC50 in [2] was 1.6 µM (active); in [3], 33.6 µM (active); in assay [4], 1.45 µM (active); in [5], 0.698 µM (active); in assay [7], > 39 µM (inactive); in assay [6] it was 0.949 µM (active).

For the compound `COc1ccccc1S(=O)(=O)N(C)C[C@@H]1Oc2cc(/C=C/c3ccccc3)ccc2S(=O)(=O)N([C@H](C)CO)C[C@H]1C`, the AC50 in [2] was 0.466 µM (active); in assay [3] it was 81.6 µM (active); in [15], 0.443 µM (active); in assay [4] it was 0.459 µM (active); in assay [5], 0.22 µM (active); in assay [6], 0.215 µM (active).

Take `COc1ccc(-c2nc(-c3ccccc3)no2)c(OC)c1`: the AC50 in assay [10] was 28.4 µM (active); in assay [11], 47.6 µM (active); in assay [12] it was 0.621 µM (active); in assay [13], 1.05 µM (active); in assay [14], 31.9 µM (active).

For the compound `O=C(COC(=O)c1ccccc1C(=O)OCC(=O)NCCc1c[nH]c2ccccc12)NCCc1c[nH]c2ccccc12`, the figures for the IC50 (with H9c2; in assay [8]; in [9]) were > 79 µM (inactive), > 123 µM (inactive) and > 123 µM (inactive), respectively.

For the compound `O=C(Nc1ccc(F)cc1)N1CCCCN2[C@@H](CO)[C@H](c3ccc(C#Cc4ccccc4)cc3)[C@@H]2C1`, the AC50 was < 0.3 µM (active) in assay [4] and 7.42 µM (active) in assay [7].

As to `O=C1NC(=S)S/C1=C\c1ccc(SCc2ccccc2)o1`, the IC50 on Large T antigen was > 100 µM (active); in assay [8], > 122 µM (inactive); in assay [9], > 122 µM (inactive).
